Measured values from patent publication US12157741B2, “Macrocyclic inhibitors of DYRK1A” (DANA-FARBER CANCER INSTITUTE, INC., priority 2018, dated 2024).
Where two headings read alike, the source gives them in different places.

What was measured:
Format in all cases: binding
various enzymes [1] = molecular target: various enzymes (Homo sapiens, UniProt P00519, E255K)
Experimental: (§1) Ambit profiling was conducted in accordance with the manufacturer's instructions.

various enzymes [2] = molecular target: various enzymes (Homo sapiens, UniProt Q14012); conditions: compound 1 uM
Experimental: as §1

various enzymes [3] = molecular target: various enzymes (Homo sapiens, UniProt Q52WX2); conditions: compound 1 uM
Experimental: as §1

various enzymes [4] = molecular target: various enzymes (Homo sapiens, UniProt P22607, G697C)
Experimental: as §1

various enzymes [5] = molecular target: various enzymes (Homo sapiens, UniProt O75747); conditions: compound 1 uM
Experimental: as §1

various enzymes [6] = molecular target: various enzymes (Homo sapiens, UniProt Q8NG66); conditions: compound 1 uM
Experimental: as §1

various enzymes [7] = molecular target: various enzymes (Homo sapiens, UniProt O43683); conditions: compound 1 uM
Experimental: as §1

various enzymes [8] = molecular target: various enzymes (Homo sapiens, UniProt Q8IYT8); conditions: compound 1 uM
Experimental: as §1

various enzymes [9] = molecular target: various enzymes (Homo sapiens, UniProt Q6P3R8); conditions: compound 1 uM
Experimental: as §1

various enzymes [10] = molecular target: various enzymes (Homo sapiens, UniProt P57078); conditions: compound 1 uM
Experimental: as §1

various enzymes [11] = molecular target: various enzymes (Homo sapiens, UniProt P42338); conditions: compound 1 uM
Experimental: as §1

various enzymes [12] = molecular target: various enzymes (Homo sapiens, UniProt Q00537); conditions: compound 1 uM
Experimental: as §1

various enzymes [13] = molecular target: various enzymes (Homo sapiens, UniProt O00506); conditions: compound 1 uM
Experimental: as §1

various enzymes [14] = molecular target: various enzymes (Homo sapiens, UniProt P09619); conditions: compound 1 uM
Experimental: as §1

various enzymes [15] = molecular target: various enzymes (Homo sapiens, UniProt Q92918); conditions: compound 1 uM
Experimental: as §1

various enzymes [16] = molecular target: various enzymes (Homo sapiens, UniProt Q9BVS4); conditions: compound 1 uM
Experimental: as §1

various enzymes [17] = molecular target: various enzymes (Homo sapiens, UniProt O00141); conditions: compound 1 uM
Experimental: as §1

various enzymes [18] = molecular target: various enzymes (Homo sapiens, UniProt P04049); conditions: compound 1 uM
Experimental: as §1

various enzymes [19] = molecular target: various enzymes (Homo sapiens, UniProt P00519, F317I); conditions: compound 1 uM
Experimental: as §1

various enzymes [20] = molecular target: various enzymes (Homo sapiens, UniProt Q56UN5); conditions: compound 1 uM
Experimental: as §1

various enzymes [21] = molecular target: various enzymes (Homo sapiens, UniProt Q9H2X6); conditions: compound 1 uM
Experimental: as §1

various enzymes [22] = molecular target: T1, various enzymes (Homo sapiens, UniProt Q13043); conditions: compound 1 uM
T1 sequence (Q13043 1-487): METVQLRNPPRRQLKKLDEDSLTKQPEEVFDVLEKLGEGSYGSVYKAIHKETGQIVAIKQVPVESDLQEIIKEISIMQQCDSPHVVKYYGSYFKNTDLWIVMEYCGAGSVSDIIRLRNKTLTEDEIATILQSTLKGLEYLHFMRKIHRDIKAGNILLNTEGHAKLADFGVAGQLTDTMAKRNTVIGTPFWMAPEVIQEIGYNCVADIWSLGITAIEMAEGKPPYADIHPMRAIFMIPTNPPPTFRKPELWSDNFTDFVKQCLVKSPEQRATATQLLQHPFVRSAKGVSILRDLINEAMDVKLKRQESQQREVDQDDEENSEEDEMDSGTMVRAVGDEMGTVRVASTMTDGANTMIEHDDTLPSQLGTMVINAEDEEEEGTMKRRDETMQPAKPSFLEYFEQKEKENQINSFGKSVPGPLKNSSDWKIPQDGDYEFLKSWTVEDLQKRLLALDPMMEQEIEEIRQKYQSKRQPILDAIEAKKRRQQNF
Experimental: as §1

various enzymes [23] = molecular target: various enzymes (Homo sapiens, UniProt O95382); conditions: compound 1 uM
Experimental: as §1

various enzymes [24] = molecular target: various enzymes (Homo sapiens, UniProt O94804); conditions: compound 1 uM
Experimental: as §1

various enzymes [25] = molecular target: various enzymes (Homo sapiens, UniProt Q5S007); conditions: compound 1 uM
Experimental: as §1

various enzymes [26] = molecular target: various enzymes (Homo sapiens, UniProt P00533, L861Q)
Experimental: as §1

various enzymes [27] = molecular target: various enzymes (Homo sapiens, UniProt Q9BRS2); conditions: compound 1 uM
Experimental: as §1

various enzymes [28] = molecular target: T2, various enzymes (Homo sapiens, UniProt P36888, D835V, form not given)
T2 construct: other: FLT3(ITD, D835V); 1 uM; other: compound 1 uM
Experimental: as §1

various enzymes [29] = molecular target: various enzymes (Homo sapiens, UniProt P29320); conditions: compound 1 uM
Experimental: as §1

various enzymes [30] = molecular target: various enzymes (Homo sapiens, UniProt Q15208); conditions: compound 1 uM
Experimental: as §1

various enzymes [31] = molecular target: various enzymes (Homo sapiens, UniProt P36888, R834Q)
Experimental: as §1

various enzymes [32] = molecular target: various enzymes (Homo sapiens, UniProt P11362); conditions: compound 1 uM
Experimental: as §1

various enzymes [33] = molecular target: various enzymes (Homo sapiens, UniProt Q8NEB9); conditions: compound 1 uM
Experimental: as §1

various enzymes [34] = molecular target: various enzymes (Homo sapiens, UniProt Q15349); conditions: compound 1 uM
Experimental: as §1

various enzymes [35] = molecular target: various enzymes (Homo sapiens, UniProt P08922); conditions: compound 1 uM
Experimental: as §1

various enzymes [36] = molecular target: various enzymes (Homo sapiens, UniProt Q9UPZ9); conditions: compound 1 uM
Experimental: as §1

Sequence of various enzymes (Homo sapiens, UniProt P00519, F317I) (P00519 whole entry F317I): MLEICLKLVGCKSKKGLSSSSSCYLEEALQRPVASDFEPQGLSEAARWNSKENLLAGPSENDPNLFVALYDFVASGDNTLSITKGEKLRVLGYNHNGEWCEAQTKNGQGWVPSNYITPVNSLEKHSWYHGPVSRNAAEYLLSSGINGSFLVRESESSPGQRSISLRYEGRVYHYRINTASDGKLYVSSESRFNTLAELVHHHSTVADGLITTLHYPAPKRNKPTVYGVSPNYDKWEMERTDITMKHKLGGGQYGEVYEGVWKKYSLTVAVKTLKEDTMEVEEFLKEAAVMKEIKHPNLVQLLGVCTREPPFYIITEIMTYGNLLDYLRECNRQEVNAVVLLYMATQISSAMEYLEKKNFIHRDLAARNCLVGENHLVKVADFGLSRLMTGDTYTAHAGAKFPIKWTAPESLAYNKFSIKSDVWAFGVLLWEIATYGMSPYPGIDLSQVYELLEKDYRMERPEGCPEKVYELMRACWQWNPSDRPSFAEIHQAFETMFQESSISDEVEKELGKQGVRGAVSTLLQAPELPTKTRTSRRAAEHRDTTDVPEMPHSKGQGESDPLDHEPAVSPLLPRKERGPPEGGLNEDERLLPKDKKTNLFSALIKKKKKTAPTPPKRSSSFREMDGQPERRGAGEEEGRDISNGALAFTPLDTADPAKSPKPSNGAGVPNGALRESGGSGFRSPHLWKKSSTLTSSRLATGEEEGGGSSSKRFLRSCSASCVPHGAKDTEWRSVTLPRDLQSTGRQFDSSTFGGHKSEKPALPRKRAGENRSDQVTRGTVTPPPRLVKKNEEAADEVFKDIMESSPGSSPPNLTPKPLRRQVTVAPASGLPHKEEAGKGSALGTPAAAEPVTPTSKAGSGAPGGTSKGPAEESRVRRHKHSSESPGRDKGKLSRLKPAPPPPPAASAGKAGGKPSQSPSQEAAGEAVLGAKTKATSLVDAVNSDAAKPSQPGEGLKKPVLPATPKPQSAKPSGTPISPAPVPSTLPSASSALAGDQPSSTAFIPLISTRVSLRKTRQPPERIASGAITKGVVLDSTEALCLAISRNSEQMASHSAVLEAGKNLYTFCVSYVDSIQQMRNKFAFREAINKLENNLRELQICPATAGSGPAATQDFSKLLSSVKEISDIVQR
Sequence of various enzymes (Homo sapiens, UniProt Q15349) (Q15349 whole entry): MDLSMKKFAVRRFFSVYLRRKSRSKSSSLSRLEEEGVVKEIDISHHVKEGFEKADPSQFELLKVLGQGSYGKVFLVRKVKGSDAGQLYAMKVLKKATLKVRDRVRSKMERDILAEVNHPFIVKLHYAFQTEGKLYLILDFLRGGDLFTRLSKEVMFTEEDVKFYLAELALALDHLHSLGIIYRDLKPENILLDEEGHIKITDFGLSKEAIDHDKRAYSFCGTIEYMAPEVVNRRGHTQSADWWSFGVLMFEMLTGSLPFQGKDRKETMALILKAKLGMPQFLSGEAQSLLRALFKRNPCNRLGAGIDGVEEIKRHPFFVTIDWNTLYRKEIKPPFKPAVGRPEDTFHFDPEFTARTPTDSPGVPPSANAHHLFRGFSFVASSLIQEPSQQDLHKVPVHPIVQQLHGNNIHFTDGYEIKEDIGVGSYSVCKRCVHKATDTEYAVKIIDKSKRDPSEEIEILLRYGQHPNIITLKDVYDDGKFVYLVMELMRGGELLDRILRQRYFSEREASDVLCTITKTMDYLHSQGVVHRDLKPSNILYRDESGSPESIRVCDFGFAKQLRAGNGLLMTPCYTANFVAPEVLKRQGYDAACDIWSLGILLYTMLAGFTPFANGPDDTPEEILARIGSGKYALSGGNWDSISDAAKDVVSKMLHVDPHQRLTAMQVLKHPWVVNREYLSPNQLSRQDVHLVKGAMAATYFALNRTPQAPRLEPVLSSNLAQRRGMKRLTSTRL
Sequence of various enzymes (Homo sapiens, UniProt P04049) (P04049 whole entry): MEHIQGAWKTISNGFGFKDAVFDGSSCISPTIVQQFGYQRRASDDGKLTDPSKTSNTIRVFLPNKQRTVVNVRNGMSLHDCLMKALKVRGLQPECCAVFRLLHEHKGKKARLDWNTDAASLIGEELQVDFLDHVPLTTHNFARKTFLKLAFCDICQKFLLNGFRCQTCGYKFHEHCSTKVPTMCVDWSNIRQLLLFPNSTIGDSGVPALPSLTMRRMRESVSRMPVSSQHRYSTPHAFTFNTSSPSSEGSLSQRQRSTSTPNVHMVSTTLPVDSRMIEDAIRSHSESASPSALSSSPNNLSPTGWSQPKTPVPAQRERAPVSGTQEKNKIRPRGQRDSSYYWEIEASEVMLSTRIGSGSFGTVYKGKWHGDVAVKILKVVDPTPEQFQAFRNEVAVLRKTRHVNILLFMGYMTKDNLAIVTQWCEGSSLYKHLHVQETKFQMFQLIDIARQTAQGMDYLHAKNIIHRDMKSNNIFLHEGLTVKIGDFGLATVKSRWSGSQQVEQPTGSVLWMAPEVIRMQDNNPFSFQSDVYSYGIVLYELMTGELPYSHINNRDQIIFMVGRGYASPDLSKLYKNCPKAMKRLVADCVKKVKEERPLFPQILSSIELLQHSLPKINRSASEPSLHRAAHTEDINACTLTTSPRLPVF
Sequence of various enzymes (Homo sapiens, UniProt O00141) (O00141 whole entry): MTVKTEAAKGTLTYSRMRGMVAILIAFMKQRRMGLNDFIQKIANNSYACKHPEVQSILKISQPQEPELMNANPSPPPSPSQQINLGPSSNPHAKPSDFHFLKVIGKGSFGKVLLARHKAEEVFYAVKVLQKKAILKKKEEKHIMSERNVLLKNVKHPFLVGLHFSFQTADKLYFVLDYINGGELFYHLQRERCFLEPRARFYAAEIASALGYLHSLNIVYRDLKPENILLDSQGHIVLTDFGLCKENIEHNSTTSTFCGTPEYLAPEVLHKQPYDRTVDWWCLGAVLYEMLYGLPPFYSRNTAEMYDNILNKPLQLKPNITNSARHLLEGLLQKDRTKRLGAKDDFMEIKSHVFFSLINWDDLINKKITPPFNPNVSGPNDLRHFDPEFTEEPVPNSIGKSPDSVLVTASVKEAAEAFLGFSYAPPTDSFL
Sequence of various enzymes (Homo sapiens, UniProt Q8IYT8) (Q8IYT8 whole entry): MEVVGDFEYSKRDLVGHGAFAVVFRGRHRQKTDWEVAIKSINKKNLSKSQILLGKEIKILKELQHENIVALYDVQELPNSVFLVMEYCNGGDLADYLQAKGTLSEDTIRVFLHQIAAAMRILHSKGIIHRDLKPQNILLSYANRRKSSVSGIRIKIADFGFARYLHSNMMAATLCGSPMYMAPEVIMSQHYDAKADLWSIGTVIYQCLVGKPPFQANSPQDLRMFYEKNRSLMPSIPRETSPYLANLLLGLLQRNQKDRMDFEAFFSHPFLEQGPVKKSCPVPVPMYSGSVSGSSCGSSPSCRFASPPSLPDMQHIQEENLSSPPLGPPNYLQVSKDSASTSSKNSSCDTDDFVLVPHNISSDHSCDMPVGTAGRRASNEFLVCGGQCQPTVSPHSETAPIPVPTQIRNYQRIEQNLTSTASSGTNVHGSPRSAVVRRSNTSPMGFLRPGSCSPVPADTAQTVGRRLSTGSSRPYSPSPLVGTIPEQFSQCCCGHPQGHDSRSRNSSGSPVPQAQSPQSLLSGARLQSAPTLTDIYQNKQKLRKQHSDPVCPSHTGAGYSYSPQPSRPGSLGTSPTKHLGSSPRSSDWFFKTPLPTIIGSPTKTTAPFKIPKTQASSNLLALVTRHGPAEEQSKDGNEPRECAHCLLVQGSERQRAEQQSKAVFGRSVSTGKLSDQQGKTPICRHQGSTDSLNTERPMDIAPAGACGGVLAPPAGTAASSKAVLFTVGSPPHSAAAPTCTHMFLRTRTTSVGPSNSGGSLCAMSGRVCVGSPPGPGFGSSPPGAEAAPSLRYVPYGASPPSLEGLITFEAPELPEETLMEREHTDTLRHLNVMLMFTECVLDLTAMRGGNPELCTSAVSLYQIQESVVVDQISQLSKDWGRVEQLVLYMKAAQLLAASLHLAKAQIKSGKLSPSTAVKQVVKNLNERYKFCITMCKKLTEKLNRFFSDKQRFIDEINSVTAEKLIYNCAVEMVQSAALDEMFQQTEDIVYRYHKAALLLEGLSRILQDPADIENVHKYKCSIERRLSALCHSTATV
Sequence of various enzymes (Homo sapiens, UniProt Q8NEB9) (Q8NEB9 whole entry): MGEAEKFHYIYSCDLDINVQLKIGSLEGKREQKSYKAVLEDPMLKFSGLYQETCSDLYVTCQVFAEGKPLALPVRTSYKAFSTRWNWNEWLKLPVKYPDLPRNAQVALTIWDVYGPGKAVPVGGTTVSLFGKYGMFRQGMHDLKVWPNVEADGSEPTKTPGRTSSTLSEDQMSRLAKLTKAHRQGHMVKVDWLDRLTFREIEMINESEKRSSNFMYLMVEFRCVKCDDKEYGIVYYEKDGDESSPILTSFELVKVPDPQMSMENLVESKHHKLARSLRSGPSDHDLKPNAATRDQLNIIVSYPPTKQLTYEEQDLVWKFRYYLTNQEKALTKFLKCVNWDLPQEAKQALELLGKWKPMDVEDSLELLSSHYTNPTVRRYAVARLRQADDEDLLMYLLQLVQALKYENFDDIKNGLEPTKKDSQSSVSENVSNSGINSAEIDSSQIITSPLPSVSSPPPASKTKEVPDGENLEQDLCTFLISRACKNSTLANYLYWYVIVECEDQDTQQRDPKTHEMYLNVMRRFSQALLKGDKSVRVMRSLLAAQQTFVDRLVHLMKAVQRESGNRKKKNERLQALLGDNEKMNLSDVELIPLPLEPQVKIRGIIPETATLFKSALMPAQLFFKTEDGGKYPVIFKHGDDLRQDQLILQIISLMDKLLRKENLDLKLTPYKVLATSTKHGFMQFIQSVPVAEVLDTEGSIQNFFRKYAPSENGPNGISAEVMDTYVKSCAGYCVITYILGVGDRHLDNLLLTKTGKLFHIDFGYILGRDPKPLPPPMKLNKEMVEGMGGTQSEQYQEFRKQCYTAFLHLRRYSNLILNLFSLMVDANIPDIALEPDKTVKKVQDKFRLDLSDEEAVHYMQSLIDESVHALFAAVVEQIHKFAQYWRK
Sequence of various enzymes (Homo sapiens, UniProt P00519, E255K) (P00519 whole entry E255K): as the sequence (P00519 whole entry F317I) above, with E255K, I317F counted along it

Compound	Ambit profiling: CAMK1 (various enzymes [2])	Ambit profiling: SBK1 (various enzymes [3])	Ambit profiling: PIK3C2G (various enzymes [5])	Ambit profiling: NEK11 (various enzymes [6])	Ambit profiling: BUB1 (various enzymes [7])	Ambit profiling: ULK2 (various enzymes [8])	Ambit profiling: NEK5 (various enzymes [9])	Ambit profiling: RIPK4 (various enzymes [10])	Ambit profiling: PIK3CB (various enzymes [11])	Ambit profiling: PCTK2 (various enzymes [12])	Ambit profiling: YSK1 (various enzymes [13])	Ambit profiling: PDGFRB (various enzymes [14])	Ambit profiling: HPK1 (various enzymes [15])	Ambit profiling: RIOK2 (various enzymes [16])	Ambit profiling: SGK (various enzymes [17])	Ambit profiling: RAF1 (various enzymes [18])	Ambit profiling: ABL1(F317I)-nonphosphorylated (various enzymes [19])	Ambit profiling: ABL1(F317I)-phosphorylated (various enzymes [19])	Ambit profiling: YSK4 (various enzymes [20])	Ambit profiling: HIPK2 (various enzymes [21])	other results
CC(C)N1Cc2nn(C)cc2-c2cnc3[nH]cc(c3c2)-c2cn(nc2C(F)(F)F)CCCC1=O [Compound 45, (Z)-5-isopropyl-31-methyl-13-(trifluoromethyl)-11H,21H,31H-5-aza-2(3,5)-pyrrolo[2,3-b]pyridina-1(4,1),3(4,3)-dipyrazolacyclononaphan-6-one]	91	100	97	100	81	56	100	100	100	19	38	0.1	5.9	74	1.3	100	87	71	17	6	Ambit profiling: ABL1(E255K)-phosphorylated (various enzymes [1]; compound 1 uM): 7.7; Ambit profiling: FGFR3(G697C) (various enzymes [4]; compound 1 uM): 4.5; Ambit profiling: MST1 (various enzymes [22]): 2.8; Ambit profiling: ASK2 (various enzymes [23]): 54; Ambit profiling: LOK (various enzymes [24]): 4.7; Ambit profiling: LRRK2 (various enzymes [25]): 44; Ambit profiling: EGFR(L861Q) (various enzymes [26]; compound 1 uM): 28; Ambit profiling: RICK1 (various enzymes [27]): 1.4; Ambit profiling: FLT3(ITD, D835V) (various enzymes [28]; compound 1 uM): 0; Ambit profiling: EPHA3 (various enzymes [29]): 32; Ambit profiling: NDR1 (various enzymes [30]): 59; Ambit profiling: FLT3(R834Q) (various enzymes [31]; compound 1 uM): 8.7; Ambit profiling: FGFR1 (various enzymes [32]): 2.5; Ambit profiling: VPS34 (various enzymes [33]): 100; Ambit profiling: RSK3(Kin.Dom.1-N-terminal) (various enzymes [34]): 4.7; Ambit profiling: RSK3(Kin.Dom.2-C-terminal) (various enzymes [34]): 96; Ambit profiling: ROS1 (various enzymes [35]): 11; Ambit profiling: ICK (various enzymes [36]): 0.95
COc1c2c(nn1C)CN(C(C)C)C(=O)CCCn1cc(c(C(F)(F)F)n1)-c1c[nH]c3ncc-2cc13 [Compound 50, (Z)-5-isopropyl-35-methoxy-31-methyl-13-(trifluoromethyl)-11H,21H,31H-5-aza-2(3,5)-pyrrolo[2,3-b]pyridina-1(4,1),3(4,3)-dipyrazolacyclononaphan-6-one]	53	98	58	94	35	96	64	85	100	56	25	0	0	64	6	93	56	19	0.1	13	Ambit profiling: ABL1(E255K)-phosphorylated (various enzymes [1]): 2; Ambit profiling: FGFR3(G697C) (various enzymes [4]): 6.4; Ambit profiling: MST1 (various enzymes [22]): 2.2; Ambit profiling: ASK2 (various enzymes [23]): 98; Ambit profiling: LOK (various enzymes [24]): 0.4; Ambit profiling: LRRK2 (various enzymes [25]): 50; Ambit profiling: EGFR(L861Q) (various enzymes [26]): 17; Ambit profiling: RIOK1 (various enzymes [27]): 16; Ambit profiling: FLT3(ITD, D835V) (various enzymes [28]): 0.55; Ambit profiling: EPHA3 (various enzymes [29]): 45; Ambit profiling: NDR1 (various enzymes [30]): 64; Ambit profiling: FLT3(R834Q) (various enzymes [31]): 0; Ambit profiling: FGFR1 (various enzymes [32]): 5.8; Ambit profiling: VPS34 (various enzymes [33]): 83; Ambit profiling: RSK3(Kin.Dom.1-N-terminal) (various enzymes [34]): 4; Ambit profiling: RSK3(Kin.Dom.2-C-terminal) (various enzymes [34]): 80; Ambit profiling: ROS1 (various enzymes [35]): 5.1; Ambit profiling: ICK (various enzymes [36]): 12
